Assay results reported in PubChem BioAssay AID248 (DTP/NCI, 2004).
Inconclusive results and toxic doses are left out. Rule as the data show it: active = T/C of 150% or more; inactive = T/C below 125%.

Tested on: L1210 leukemia ip in BDF1 mice, survival T/C
Assay: NCI In Vivo Anticancer Drug Screen. Data for tumor model L1210 Leukemia (intraperitoneal) in B6D2F1 (BDF1) mice
Conditions: endpoint: mean survival time, higher = longer survival
In short: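 Mice bearing the transplanted tumor received compound or vehicle. Survival of the treated group was divided by that of the vehicle-treated control group to give the ratio.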

[1] = dose: 100.0 mg/kg/injection, schedule: Q01DX001 (ip), vehicle: saline
[2] = dose: 200.0 mg/kg/injection, schedule: Q01DX001 (ip), vehicle: saline
[3] = dose: 400.0 mg/kg/injection, schedule: Q01DX001 (ip), vehicle: saline
[4] = dose: 100.0 mg/kg/injection, schedule: Q01DX009 (ip), vehicle: saline with Tween-80
[5] = dose: 200.0 mg/kg/injection, schedule: Q01DX009 (ip), vehicle: saline with Tween-80
[6] = dose: 50.0 mg/kg/injection, schedule: Q01DX009 (ip), vehicle: Klucel (hydroxypropylcellulose) (HPC)
[7] = dose: 100.0 mg/kg/injection, schedule: Q04DX003 (ip), vehicle: Klucel (hydroxypropylcellulose) (HPC)
[8] = dose: 200.0 mg/kg/injection, schedule: Q01DX009 (ip), vehicle: Klucel (hydroxypropylcellulose) (HPC)
[9] = dose: 200.0 mg/kg/injection, schedule: Q04DX003 (ip), vehicle: Klucel (hydroxypropylcellulose) (HPC)
[10] = dose: 100.0 mg/kg/injection, schedule: Q01DX009 (ip), vehicle: Klucel (hydroxypropylcellulose) (HPC)
[11] = dose: 400.0 mg/kg/injection, schedule: Q01DX009 (ip), vehicle: Klucel (hydroxypropylcellulose) (HPC)
[12] = dose: 400.0 mg/kg/injection, schedule: Q04DX003 (ip), vehicle: Klucel (hydroxypropylcellulose) (HPC)
[13] = dose: 100.0 mg/kg/injection, schedule: Q04DX003 (ip), vehicle: saline
[14] = dose: 200.0 mg/kg/injection, schedule: Q04DX003 (ip), vehicle: saline

Measured: T/C

Clc1ccc(/C=N/c2ccccn2)cc1
inactive: [1] 102 % of control | [2] 102 % of control | [3] 100 % of control

O=S(=O)(c1ccc(N=Nc2ncc[nH]2)cc1)N(CCCl)CCCl
inactive: dose: 50.0 mg/kg/injection, schedule: Q01DX009 (ip), vehicle: saline with Tween-80 90 % of control | [4] 94 % of control | [5] 90 % of control

Cn1ncc2c1C1(C)CCC2C1(C)C (stereo not drawn)
inactive: [6] 89 % of control | [7] 102 % of control | [8] 92 % of control | [9] 107 % of control

O=Cc1ccc2ccc3cccc4ccc1c2c34
inactive: dose: 100.0 mg/kg/injection, schedule: Q04DX002 (ip), vehicle: saline with Tween-80 98 % of control | dose: 200.0 mg/kg/injection, schedule: Q04DX002 (ip), vehicle: saline with Tween-80 95 % of control | dose: 400.0 mg/kg/injection, schedule: Q04DX002 (ip), vehicle: saline with Tween-80 95 % of control

O=C(CNC(=O)Nc1ccc(Cl)c(Cl)c1)NNC(=O)Nc1ccc(Cl)c([N+](=O)[O-])c1
inactive: [10] 97 % of control | [8] 97 % of control | [11] 93 % of control

Oc1ccccc1OCc1ccccc1
inactive: dose: 50.0 mg/kg/injection, schedule: Q04DX003 (ip), vehicle: Klucel (hydroxypropylcellulose) (HPC) 92 % of control | [10] 101 % of control | [7] 94 % of control | [8] 97 % of control | [9] 92 % of control | [11] 102 % of control | [12] 100 % of control

Cc1ccc(S(=O)(=O)N(C)c2ccc(I)c(Cl)c2Cl)cc1
inactive: [7] 102 % of control | [9] 96 % of control | [12] 98 % of control

Cc1cc(C)c(C(N)=O)c(N)n1
inactive: [7] 105 % of control | [9] 90 % of control | [12] 106 % of control

Cc1ccc2c(c1)C(=O)CCS2
inactive: [10] 107 % of control | [8] 100 % of control | [11] 102 % of control

CCOC(=O)c1c(C)c(Br)c(O)c(Br)c1O
inactive: [1] 98 % of control | dose: 100.0 mg/kg/injection, schedule: Q04DX003 (ip), vehicle: other 86 % of control | [2] 91 % of control | dose: 200.0 mg/kg/injection, schedule: Q04DX003 (ip), vehicle: other 100 % of control | [3] 103 % of control | dose: 400.0 mg/kg/injection, schedule: Q04DX003 (ip), vehicle: other 106 % of control

Cc1ccc(S(=O)(=O)OCC2OCOC2C2OCOC2C)cc1 (stereo not drawn)
inactive: dose: 100.0 mg/kg/injection, schedule: Q01DX001 (ip), vehicle: saline with Tween-80 104 % of control | dose: 200.0 mg/kg/injection, schedule: Q01DX001 (ip), vehicle: saline with Tween-80 93 % of control | dose: 400.0 mg/kg/injection, schedule: Q01DX001 (ip), vehicle: saline with Tween-80 97 % of control

NS(=O)(=O)c1ccc(C(=O)NO)cc1
inactive: [13] 100 % of control | [14] 110 % of control | dose: 400.0 mg/kg/injection, schedule: Q04DX003 (ip), vehicle: saline 102 % of control

CN(C)CCCNc1cc2c3ccccc3ncc2c2ccccc12
inactive: [4] 98 % of control | dose: 100.0 mg/kg/injection, schedule: Q04DX003 (ip), vehicle: saline with Tween-80 108 % of control | [5] 93 % of control | dose: 200.0 mg/kg/injection, schedule: Q04DX003 (ip), vehicle: saline with Tween-80 113 % of control | dose: 400.0 mg/kg/injection, schedule: Q01DX009 (ip), vehicle: saline with Tween-80 108 % of control | dose: 400.0 mg/kg/injection, schedule: Q04DX003 (ip), vehicle: saline with Tween-80 101 % of control

CN(C)CCOc1ccccc1Cc1ccccc1
inactive: dose: 12.5 mg/kg/injection, schedule: Q01DX009 (ip), vehicle: saline 96 % of control | dose: 25.0 mg/kg/injection, schedule: Q01DX009 (ip), vehicle: saline 97 % of control | dose: 25.0 mg/kg/injection, schedule: Q04DX003 (ip), vehicle: saline 107 % of control | dose: 50.0 mg/kg/injection, schedule: Q01DX009 (ip), vehicle: saline 90 % of control | dose: 50.0 mg/kg/injection, schedule: Q04DX003 (ip), vehicle: saline 98 % of control | dose: 100.0 mg/kg/injection, schedule: Q01DX009 (ip), vehicle: saline 103 % of control | [13] 107 % of control | dose: 200.0 mg/kg/injection, schedule: Q01DX009 (ip), vehicle: saline 110 % of control | [14] 107 % of control

COCCNC(=O)SCCC(=O)O
inactive: [1] 96 % of control | [2] 100 % of control | [3] 100 % of control

Nc1nc(=S)ss1
inactive: [7] 108 % of control | [9] 105 % of control | [12] 97 % of control

COC1OC(COC(c2ccccc2)(c2ccccc2)c2ccccc2)C(O)C(O)C1O (stereo not drawn)
inactive: [6] 89 % of control | [10] 93 % of control | [8] 89 % of control
